Laboratory results published in patent publication US4189604A, “Bestatin” (Zaidan Hojin Biseibutsu Kagaku Kenkyu Kai, priority 1975, dated 1980).
≈ marks a conversion by molar mass, not a printed value. Read-outs that look alike come from different tables or passages of the source.

What was measured:
[1] = target: T1, aminopeptidase B (Rattus norvegicus, UniProt O09175); assay: Inhibitory activity against aminopeptidase B; format: biochemical; settings: for IC50: read-out: ID50 (the source's name) (converted); for inhibitory effect relative to Bestatin: compared with Bestatin
T1 construct: aminopeptidase B solution which is prepared by Sephadex 100 chromatography as described by Hopusu et al; from tissue
T1 sequence (O09175 1-650): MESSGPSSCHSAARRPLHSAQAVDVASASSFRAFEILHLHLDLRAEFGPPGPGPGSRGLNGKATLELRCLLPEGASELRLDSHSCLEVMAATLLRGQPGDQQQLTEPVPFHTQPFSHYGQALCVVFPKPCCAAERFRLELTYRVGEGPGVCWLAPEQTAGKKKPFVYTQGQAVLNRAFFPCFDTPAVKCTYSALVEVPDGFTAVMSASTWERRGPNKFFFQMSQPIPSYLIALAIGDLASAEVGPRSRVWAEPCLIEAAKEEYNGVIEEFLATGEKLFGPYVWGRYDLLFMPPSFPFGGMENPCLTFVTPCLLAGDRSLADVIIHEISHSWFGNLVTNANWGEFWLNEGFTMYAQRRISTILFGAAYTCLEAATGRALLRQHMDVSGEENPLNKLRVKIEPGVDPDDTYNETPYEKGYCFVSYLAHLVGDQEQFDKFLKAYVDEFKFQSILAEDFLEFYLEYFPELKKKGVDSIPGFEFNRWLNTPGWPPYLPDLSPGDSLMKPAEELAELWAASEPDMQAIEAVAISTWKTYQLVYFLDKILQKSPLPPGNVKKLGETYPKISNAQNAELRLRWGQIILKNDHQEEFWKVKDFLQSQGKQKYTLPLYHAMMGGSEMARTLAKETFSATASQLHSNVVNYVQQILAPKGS
Protocol: (A) Inhibitory activity against aminopeptidase B Testing method: The method described by […] in Archives of Biochemistry and Biophysics 114, 557, (1966) was modfied. To the mixture of 0.3 ml. of 1 mM arginine β-naphthylamide and 1.0 Ml. of 0.1 M Tris hydrochloride buffer (pH 7.0), 0.7 Ml. of distilled water with or without a test material is added and warmed at 37° C. for 3 minutes. The reaction is started by addition of 0.2 ml. of aminopeptidase B solution which is prepared by Sephadex 100 chromatography as described by Hopusu et al. […] Fifteen minutes at room temperature thereafter, absorbance (a) at 530 nm is measured by spectrophotometer. […] The inhibition percent is calculated as follows: (b-a)/b×100.

[2] = test system: plaque forming cells in the spleen; assay: Effect on humoral antibody formation to Sheep Red Blood Cell (SRBC) in mice (JERNE's hemolytic plaque technique); format: in vivo, Mice (dd/y female); settings: for Antibody Forming Cells Number / Antibody Forming Cells Treated Group / Non-treated Group: intraperitoneal, four days
Protocol: The compound of Example 28 was also tested for its humoral antibody formation to find its efficacy as an immunizing cancer inhibitor. […] For the humoral antibody formation of Bestatin per se see J. Antibiotics, 29(8), 857-859 (August, 1976).
The effect of (2RS,3RS)-3-amino-2-hydroxy-4-hydroxyphenylbutanoyl-(S)-leucine on humoral antibody formation to Sheep Red Blood Cell (SRBC) in mice was studied as follows.
Mice (dd/y female) were immunized by intravenous injection of 10^8 SRBC. Intraperitoneal injection of (2RS,3RS)-3-amino-2-hydroxy-4-hydroxyphenylbutanoyl-(S)-leucine was made soon afterwards.
Four days thereafter the number of plaque forming cells in the spleen were enumerated by JERNE's hemolytic plaque technique [Jerne, N. K.; A. A. Nordin & C. Henry: "The Agar Plaque Technique for Recognizing Antibody-producing Cells" in cell-bound antibodies (Wistar Institute Press, Philadelphia, 1963), pp. 109-122].

[3] = Biological Testing table after Example 29
[4] = pH 7.0, 37° C., 30 minutes, Table 1

Q: For `CC(C)C[C@H](NC(=O)C(O)C(N)Cc1ccc(O)cc1)C(=O)O` (stereo partly drawn) [Example 28, (2RS,3RS)-3-amino-2-hydroxy-4-p-hydroxyphenylbutanoyl-(S)-leucine], which IC50 [1, 3] is on record?
A: 308 nM

Q: What about the “inhibitory effect relative to Bestatin” value [1] of the same molecule?
A: substantially the same inhibitory effects as Bestatin

Q: And the “number of antibody forming cells relative to non-treated mice” value ([2]; 1 mcg.)?
A: 1.41 times

Q: And the “number of antibody forming cells relative to non-treated mice” value ([2]; 10 mcg.)?
A: 1.66 times

Q: And the “Antibody Forming Cells Number” value ([2]; dose 1 mg.)?
A: 207,400±8,025

Q: What about the “Antibody Forming Cells Treated Group / Non-treated Group” value ([2]; dose 1 mg.) of the same molecule?
A: 1.66

Q: And the “Antibody Forming Cells Number” value ([2]; dose 0.1 mcg.)?
A: 141,000±5,700

Q: And the “Antibody Forming Cells Treated Group / Non-treated Group” value ([2]; dose 0.1 mcg.)?
A: 1.13

Q: What about the “Antibody Forming Cells Number” value ([2]; dose 1 mcg.) of the same molecule?
A: 175,800±8,200

Q: What about the “Antibody Forming Cells Treated Group / Non-treated Group” value ([2]; dose 1 mcg.) of the same molecule?
A: 1.41

Q: And the “Antibody Forming Cells Number” value ([2]; dose 10 mcg.)?
A: 208,000±7,180

Q: And the “Antibody Forming Cells Treated Group / Non-treated Group” value ([2]; dose 10 mcg.)?
A: 1.66

Q: What about the “Antibody Forming Cells Number” value ([2]; dose 100 mcg.) of the same molecule?
A: 261,000±11,700

Q: What about the “Antibody Forming Cells Treated Group / Non-treated Group” value ([2]; dose 100 mcg.) of the same molecule?
A: 2.09

Q: What about the “number of humoral antibody (forming) cells” value ([2]; in words) of the same molecule?
A: increasing the number of humoral antibody cells to a considerable degree

Q: What about the “number of nonspecific antibody forming cells” value ([2]; in words) of the same molecule?
A: did not increase the weight of the spleen or the number of nonspecific antibody forming cells

Q: What about the “weight of the spleen” value ([2]; in words) of the same molecule?
A: did not increase the weight of the spleen

Q: What about the “number of humoral antibody (forming) cells” value ([2]; in words, listed as (2RS,3RS)-3-amino-2-hydroxy-4-hydroxybutanoyl-(S)-leucine) of the same molecule?
A: excellent effect of increasing the number of antibody forming cells

Q: With `CC(C)C[C@H](NC(=O)[C@@H](O)[C@H](N)Cc1ccc(O)cc1)C(=O)O` [Example 29, (2S,3R)-3-amino-2-hydroxy-4-p-hydroxyphenylbutanoyl-(S)-leucine] as the molecule, how does the IC50 [1, 3] read?
A: 21.6 nM

Q: What about the “inhibitory effect relative to Bestatin” value [1] of the same molecule?
A: one-fourteenth of Bestatin

Q: How did the ID50 [1, 4] turn out when `CC(C)C[C@H](NC(=O)[C@@H](O)[C@@H](N)Cc1ccccc1)C(=O)O` [No. 2, (2S,3S)-3-amino-2-hydroxy-4-phenylbutanoyl-(S)-leucine] was run?
A: 1.25 µg/mL (≈ 4.05 µM)

Q: For `CC(C)C[C@@H](NC(=O)[C@@H](O)[C@H](N)Cc1ccccc1)C(=O)O` [No. 3, (2S,3R)-3-amino-2-hydroxy-4-phenylbutanoyl-(R)-leucine], which ID50 [1, 4] is on record?
A: 0.56 µg/mL (≈ 1.82 µM)

Q: For `CC(C)C[C@@H](NC(=O)[C@@H](O)[C@@H](N)Cc1ccccc1)C(=O)O` [No. 4, (2S,3S)-3-amino-2-hydroxy-4-phenylbutanoyl-(R)-leucine], which IC50 [1, 4] is on record?
A: 130 nM

Q: With `N[C@H](Cc1ccccc1)[C@H](O)C(=O)NCC(=O)O` [No. 5, (2S,3R)-3-amino-2-hydroxy-4-phenylbutanoyl-glycine] as the molecule, how does the ID50 [1, 4] read?
A: 21.5 µg/mL (≈ 85.2 µM)

Q: `CC[C@H](C)[C@H](NC(=O)[C@@H](O)[C@H](N)Cc1ccccc1)C(=O)O` [No. 7, (2S,3R)-3-amino-2-hydroxy-4-phenylbutanoyl-(S)-isoleucine] was tested. Which IC50 [1, 4] did it give?
A: 162 nM

Q: Which ID50 [1, 4] does the source give for `CSCC[C@H](NC(=O)[C@@H](O)[C@H](N)Cc1ccccc1)C(=O)O` [No. 8, (2S,3R)-3-amino-2-hydroxy-4-phenylbutanoyl-(S)-methionine] here?
A: 0.22 µg/mL (≈ 0.674 µM)

Q: With `NC(=O)CC[C@H](NC(=O)[C@@H](O)[C@H](N)Cc1ccccc1)C(=O)O` [No. 9, (2S,3R)-3-amino-2-hydroxy-4-phenylbutanoyl-(S)-glutamine] as the molecule, how does the ID50 [1, 4] read?
A: 1.2 µg/mL (≈ 3.71 µM)

Q: With `CCCC[C@H](NC(=O)[C@@H](O)[C@H](N)Cc1ccccc1)C(=O)O` [No. 11, (2S,3R)-3-amino-2-hydroxy-4-phenylbutanoyl-(S)-norleucine] as the molecule, how does the ID50 [1, 4] read?
A: 0.13 µg/mL (≈ 0.422 µM)

Q: Which ID50 [1, 4] does the source give for `N[C@H](Cc1ccccc1)[C@H](O)C(=O)N[C@@H](Cc1ccccc1)C(=O)O` [No. 12, (2S,3R)-3-amino-2-hydroxy-4-phenylbutanoyl-(S)-phenylalanine] here?
A: 4.2 µg/mL (≈ 12.3 µM)

Q: `N[C@H](Cc1ccccc1)[C@H](O)C(=O)N[C@@H](CO)C(=O)O` [No. 13, (2S,3R)-3-amino-2-hydroxy-4-phenylbutanoyl-(S)-serine] was tested. Which IC50 [1, 4] did it give?
A: 2550 nM

Q: With `N[C@H](Cc1ccccc1)[C@H](O)C(=O)N[C@@H](CCC(=O)O)C(=O)O` [No. 14, (2S,3R)-3-amino-2-hydroxy-4-phenylbutanoyl-(S)-glutamic acid] as the molecule, how does the ID50 [1, 4] read?
A: 25 µg/mL (≈ 77.1 µM)

Q: Which ID50 [1, 4] does the source give for `CCCCCCC(NC(=O)[C@@H](O)[C@H](N)Cc1ccccc1)C(=O)O` (stereo partly drawn) [No. 15, (2S,3R)-3-amino-2-hydroxy-4-phenylbutanoyl-(RS)-2-aminooctanoic acid] here?
A: 3.1 µg/mL (≈ 9.21 µM)

Q: With `CC(C)C[C@H](NC(=O)C(O)[C@@H](C)N)C(=O)O` (some centres unmarked) [No. 16] as the molecule, how does the ID50 [1, 4] read?
A: 16 µg/mL (≈ 68.9 µM)

Q: `CC(C)C[C@H](NC(=O)C(O)[C@H](N)CC(C)C)C(=O)O` (stereo partly drawn) [No. 17, (2RS,3R)-30 amino-2-hydroxy-5-methylhexanoyl-(S)-leucine] was tested. Which ID50 [1, 4] did it give?
A: 12 µg/mL (≈ 43.7 µM)

Q: `CC(C)C[C@H](NC(=O)C(O)[C@H](N)c1ccccc1)C(=O)O` (stereo partly drawn) [No. 18, (2RS,3R)-3-amino-2-hydroxy-3-phenylpropionyl-(S)-leucine] was tested. Which ID50 [1, 4] did it give?
A: 56 µg/mL (≈ 190 µM)

Q: Which “number of antibody forming cells compared with non-treated group” value ([2]; 10 mcg., in words) does the source give for `CC(C)C[C@H](NC(=O)C(O)C(N)Cc1ccc(Cl)cc1)C(=O)O` (stereo partly drawn) [No. 19, (2RS,3RS)-3-amino-2-hydroxy-4-p-chlorophenylbutanoyl-(S)-leucine] here?
A: nearly equal to that of non-treated group

Q: And the “Antibody Forming Cells Number” value ([2]; dose 1 mg.)?
A: 208,750±8,000

Q: And the “Antibody Forming Cells Treated Group / Non-treated Group” value ([2]; dose 1 mg.)?
A: 1.67

Q: And the “Antibody Forming Cells Number” value ([2]; dose 10 mcg.)?
A: 133,750±5,600

Q: And the “Antibody Forming Cells Treated Group / Non-treated Group” value ([2]; dose 10 mcg.)?
A: 1.07

Q: With `Cc1ccc(CC(N)C(O)C(=O)N[C@@H](CC(C)C)C(=O)O)cc1` (stereo partly drawn) [No. 21, (2RS,3RS)-3-amino-2-hydroxy-4-p-methylphenylbutanoyl-(S)-leucine] as the molecule, how does the ID50 [1, 4] read?
A: 0.01 µg/mL (≈ 0.031 µM)

Q: How did the ID50 [1, 4] turn out when `CC(C)C[C@H](NC(=O)[C@@H](O)[C@H](N)Cc1ccc([N+](=O)[O-])cc1)C(=O)O` [No. 22, (2S,3R)-3-amino-2-hydroxy-4-p-nitrophenylbutanoyl-(S)-leucine] was run?
A: 0.01 µg/mL (≈ 0.0283 µM)

Q: How did the ID50 [1, 4] turn out when `CC(C)C[C@H](NC(=O)[C@@H](O)[C@H](N)Cc1ccc(N)cc1)C(=O)O` [No. 23, (2S,3R)-3-amino-2-hydroxy-4-p-aminophenylbutanoyl-(S)-leucine] was run?
A: 0.10 µg/mL (≈ 0.309 µM)

Q: Which IC50 [1, 4] does the source give for `CC(C)C[C@H](NC(=O)[C@@H](O)[C@H](N)CC1CCCCC1)C(=O)O` [No. 24, (2S,3R)-3-amino-2-hydroxy-4-cyclohexylbutanoyl-(S)-leucine] here?
A: 3340 nM
